For assay [1], the target named is T1, human transferrin receptor (hTfR) (Homo sapiens, UniProt P02786). Nature of the assay: SPR measurement under pH 7.4 conditions (Biacore T200, CM3 chip, hTfR captured by His Tag antibody). It counts as binding. The following applies: pH 7.4, single-cycle kinetics; read-out: hTfR SPR pH7.4 KD.
The target in assay [2] is T1, human transferrin receptor (hTfR). Nature of the assay: SPR measurement under pH 6.0 conditions (Biacore T200, NTA chip, immobilized hTfR). It counts as binding. The following applies: pH 6.0, single-cycle kinetics; read-out: hTfR SPR pH6.0 KD. Background: Surface plasmon resonance follows binding to a sensor surface in real time, without labels.

The text below walks through data of patent EP4667483A1, “HUMAN TRANSFERRIN RECEPTOR-BINDING PEPTIDE” (JCR Pharmaceuticals Co., Ltd., priority 2023, dated 2024).

In general, Kd refers to the concentration at which binding is half-saturated.

Bridge positions count the residues as written; N and C are the ends. Square brackets hold non-standard residues; d marks the D form. Peptide text beside a SMILES is read from it. * marks the point of attachment. Trp(1-CH2COOH) = N[C@@H](Cc1cn(CC(=O)O)c2ccccc12)C(=O)O; CH2CON(CH2CH2)2NCH2COOH = O=C(O)CN1CCN(C(=O)C*)CC1; NMePhe(4-COOH) = CN[C@@H](Cc1ccc(C(=O)O)cc1)C(=O)O; Nle(6-morpholino) = N[C@@H](CCCCN1CCOCC1)C(=O)O; Phe(3-COOH) = N[C@@H](Cc1cccc(C(=O)O)c1)C(=O)O; Trp(7-aza) = N[C@@H](Cc1c[nH]c2ncccc12)C(=O)O; NH(CH2CH2O)8Me = COCCOCCOCCOCCOCCOCCOCCOCCN*; NMePhe(3-Cl) = CN[C@@H](Cc1cccc(Cl)c1)C(=O)O; 3Pal(6-NH2) = Nc1ccc(C[C@H](N)C(=O)O)cn1; NMeW = CN[C@@H](Cc1c[nH]c2ccccc12)C(=O)O; NMeY = CN[C@@H](Cc1ccc(O)cc1)C(=O)O; Nva(3-Et) = CCC(CC)[C@H](N)C(=O)O; 4Pal = N[C@@H](Cc1ccncc1)C(=O)O; PEG4 = NCCOCCOCCOCCOCCC(=O)O; Carboxymethyl = O=C(O)C*

T1 sequence (P02786 whole entry): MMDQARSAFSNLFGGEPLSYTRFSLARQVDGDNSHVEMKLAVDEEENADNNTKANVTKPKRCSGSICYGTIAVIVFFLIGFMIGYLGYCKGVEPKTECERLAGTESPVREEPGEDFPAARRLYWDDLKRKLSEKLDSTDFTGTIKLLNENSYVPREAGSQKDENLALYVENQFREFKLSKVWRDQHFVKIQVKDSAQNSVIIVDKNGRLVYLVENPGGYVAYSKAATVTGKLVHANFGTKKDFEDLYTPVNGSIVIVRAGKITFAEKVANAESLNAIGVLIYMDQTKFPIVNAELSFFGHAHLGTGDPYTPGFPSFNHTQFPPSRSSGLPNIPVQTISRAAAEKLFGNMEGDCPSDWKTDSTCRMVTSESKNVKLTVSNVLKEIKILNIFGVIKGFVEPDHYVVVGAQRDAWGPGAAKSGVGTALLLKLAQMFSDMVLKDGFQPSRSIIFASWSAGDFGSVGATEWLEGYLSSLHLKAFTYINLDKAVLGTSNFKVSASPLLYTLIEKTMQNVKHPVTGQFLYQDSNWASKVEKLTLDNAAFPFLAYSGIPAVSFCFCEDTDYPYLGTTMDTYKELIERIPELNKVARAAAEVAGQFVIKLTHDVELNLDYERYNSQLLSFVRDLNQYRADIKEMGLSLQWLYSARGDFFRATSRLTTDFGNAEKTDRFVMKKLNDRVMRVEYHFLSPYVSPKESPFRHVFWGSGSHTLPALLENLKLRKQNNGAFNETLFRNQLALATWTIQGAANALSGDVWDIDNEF

Take `CCC(CC)[C@@H]1NC(=O)[C@H](Cc2ccc(OCC(=O)O)cc2)NC(=O)[C@H](Cc2ccc(N)nc2)NC(=O)[C@H](CC(N)=O)NC(=O)[C@H](Cc2cn(CC(=O)O)c3ccccc23)NC(=O)[C@H](C(C)C)NC(=O)[C@H](Cc2cccc(Cl)c2)N(C)C(=O)[C@H](C(C)C)NC(=O)[C@H](C)NC(=O)CSC[C@@H](C(=O)NCCOCCOCCOCCOCCC(N)=O)NC(=O)[C@H](Cc2ccc(C(=O)O)cc2)N(C)C(=O)[C@H](Cc2ccncc2)NC(=O)[C@H](CCCCN2CCOCC2)NC(=O)[C@H](CCC(N)=O)NC(=O)[C@H]([C@@H](C)CC)NC1=O` [compound 49] ({CH2CO}-AV[NMePhe(3-Cl)]V[Trp(1-CH2COOH)]N[3Pal(6-NH2)]Y(Carboxymethyl)[Nva(3-Et)]IQ[Nle(6-morpholino)][4Pal][NMePhe(4-COOH)]C[PEG4]-NH2; thioether N-15): the figures for the Kd in assay [1] and in assay [2] were 15800 nM and 576 nM, respectively.

`CCC(CC)[C@@H]1NC(=O)[C@H](Cc2ccc(OCC(=O)O)cc2)NC(=O)[C@H](Cc2ccc(N)nc2)NC(=O)[C@H](CC(N)=O)NC(=O)[C@H](Cc2cn(CC(=O)O)c3ccccc23)NC(=O)[C@H](C(C)C)NC(=O)[C@H](Cc2cccc(Cl)c2)N(C)C(=O)[C@H](C(C)C)NC(=O)[C@H](C)NC(=O)CSC[C@@H](C(=O)NCCOCCOCCOCCOCCC(N)=O)NC(=O)[C@H](Cc2ccc(C(=O)O)cc2)N(C)C(=O)[C@H](Cc2ccncc2)NC(=O)[C@H](CCCNC(=N)N)NC(=O)[C@H](CCC(=O)NCCOCCOCCOCCOCCOCCOCCOCCOC)NC(=O)[C@H]([C@@H](C)CC)NC1=O` [compound 50] ({CH2CO}-AV[NMePhe(3-Cl)]V[Trp(1-CH2COOH)]N[3Pal(6-NH2)]Y(Carboxymethyl)[Nva(3-Et)]IE(NH(CH2CH2O)8Me)R[4Pal][NMePhe(4-COOH)]C[PEG4]-NH2; thioether N-15): the values for the Kd in assay [1] and in assay [2] were 6500 nM and 1780 nM, respectively.

Turning to `CC[C@H](C)[C@@H]1NC(=O)[C@H](Cc2ccc(OCC(=O)N3CCN(CC(=O)O)CC3)cc2)NC(=O)[C@H](Cc2ccc(N)nc2)NC(=O)[C@H](CC(N)=O)NC(=O)[C@H](Cc2cn(CC(=O)O)c3ccccc23)NC(=O)[C@H](C(C)C)NC(=O)[C@H](Cc2cccc(Cl)c2)N(C)C(=O)[C@H](C(C)C)NC(=O)[C@H](C)NC(=O)CSC[C@@H](C(=O)NCCOCCOCCOCCOCCC(N)=O)NC(=O)[C@H](Cc2ccc(C(=O)O)cc2)N(C)C(=O)[C@H](Cc2cccc(C(=O)O)c2)NC(=O)[C@H](CCCCN2CCOCC2)NC(=O)[C@H](CCC(N)=O)NC(=O)[C@H]([C@@H](C)CC)NC1=O` [compound 51] ({CH2CO}-AV[NMePhe(3-Cl)]V[Trp(1-CH2COOH)]N[3Pal(6-NH2)]Y(CH2CON(CH2CH2)2NCH2COOH)IIQ[Nle(6-morpholino)][Phe(3-COOH)][NMePhe(4-COOH)]C[PEG4]-NH2; thioether N-15), the values for the Kd in assay [1] and in assay [2] were 1560 nM and 692 nM, respectively.

On to `CCC(CC)[C@@H]1NC(=O)[C@H](Cc2ccc(OCC(=O)N3CCN(CC(=O)O)CC3)cc2)NC(=O)[C@H](Cc2ccc(N)nc2)NC(=O)[C@H](CC(N)=O)NC(=O)[C@H](Cc2cn(CC(=O)O)c3ccccc23)NC(=O)[C@H](C(C)C)NC(=O)[C@H](Cc2cccc(Cl)c2)N(C)C(=O)[C@H](C(C)C)NC(=O)[C@H](C)NC(=O)CSC[C@@H](C(=O)NCCOCCOCCOCCOCCC(N)=O)NC(=O)[C@H](Cc2ccc(O)cc2)N(C)C(=O)[C@H](Cc2cccc(C(=O)O)c2)NC(=O)[C@H](CCCCN2CCOCC2)NC(=O)[C@H](CCC(N)=O)NC(=O)[C@H]([C@@H](C)CC)NC1=O` [compound 52] ({CH2CO}-AV[NMePhe(3-Cl)]V[Trp(1-CH2COOH)]N[3Pal(6-NH2)]Y(CH2CON(CH2CH2)2NCH2COOH)[Nva(3-Et)]IQ[Nle(6-morpholino)][Phe(3-COOH)][NMeY]C[PEG4]-NH2; thioether N-15), for which the Kd in assay [1] amounted to 5820 nM; in assay [2], 626 nM.

With `CCC(CC)[C@@H]1NC(=O)[C@H](Cc2ccc(OC)cc2)NC(=O)[C@H](Cc2ccc(O)cc2)NC(=O)[C@H](CC(N)=O)NC(=O)[C@H](Cc2c[nH]c3ncccc23)NC(=O)[C@H](C(C)C)NC(=O)[C@H](Cc2cccc(Cl)c2)N(C)C(=O)[C@H](C(C)C)NC(=O)[C@H](C)NC(=O)CSC[C@@H](C(=O)NCCOCCOCCOCCOCCC(N)=O)NC(=O)[C@H](Cc2ccc(O)cc2)N(C)C(=O)[C@H](Cc2ccncc2)NC(=O)[C@H](CCCNC(=N)N)NC(=O)[C@H](CCCCN2CCOCC2)NC(=O)[C@H]([C@@H](C)CC)NC1=O` [compound 54] ({CH2CO}-AV[NMePhe(3-Cl)]V[Trp(7-aza)]NYY(Me)[Nva(3-Et)]I[Nle(6-morpholino)]R[4Pal][NMeY]C[PEG4]-NH2; thioether N-15), the Kd in assay [1] worked out at 1.38 nM; in assay [2], 9.2 nM.

With `CCC(CC)[C@@H]1NC(=O)[C@H](Cc2ccc(OCC(=O)N3CCN(CC(=O)O)CC3)cc2)NC(=O)[C@H](Cc2ccc(O)cc2)NC(=O)[C@H](CC(N)=O)NC(=O)[C@H](Cc2cn(CC(=O)O)c3ccccc23)NC(=O)[C@H](C(C)C)NC(=O)[C@H](Cc2cccc(Cl)c2)N(C)C(=O)[C@H](C(C)C)NC(=O)[C@H](C)NC(=O)CSC[C@@H](C(=O)NCCOCCOCCOCCOCCC(N)=O)NC(=O)[C@H](Cc2ccc(C(=O)O)cc2)N(C)C(=O)[C@H](Cc2cccc(C(=O)O)c2)NC(=O)[C@H](CCCCN2CCOCC2)NC(=O)[C@H](CCCCN2CCOCC2)NC(=O)[C@H]([C@@H](C)CC)NC1=O` [compound 55] ({CH2CO}-AV[NMePhe(3-Cl)]V[Trp(1-CH2COOH)]NYY(CH2CON(CH2CH2)2NCH2COOH)[Nva(3-Et)]I[Nle(6-morpholino)][Nle(6-morpholino)][Phe(3-COOH)][NMePhe(4-COOH)]C[PEG4]-NH2; thioether N-15), the Kd in assay [1] was found to be 26.4 nM; in assay [2] it was 38.5 nM.

As for `CCC(CC)[C@@H]1NC(=O)[C@H](Cc2ccc(OCC(=O)N3CCN(CC(=O)O)CC3)cc2)NC(=O)[C@H](Cc2ccc(O)cc2)NC(=O)[C@H](CC(N)=O)NC(=O)[C@H](Cc2cn(CC(=O)O)c3ccccc23)NC(=O)[C@H](C(C)C)NC(=O)[C@H](Cc2cccc(Cl)c2)N(C)C(=O)[C@H](C(C)C)NC(=O)[C@H](C)NC(=O)CSC[C@@H](C(=O)NCCOCCOCCOCCOCCC(N)=O)NC(=O)[C@H](Cc2ccc(C(=O)O)cc2)N(C)C(=O)[C@H](Cc2ccncc2)NC(=O)[C@H](CCCCN2CCOCC2)NC(=O)[C@H](CCCCN2CCOCC2)NC(=O)[C@H]([C@@H](C)CC)NC1=O` [compound 56] ({CH2CO}-AV[NMePhe(3-Cl)]V[Trp(1-CH2COOH)]NYY(CH2CON(CH2CH2)2NCH2COOH)[Nva(3-Et)]I[Nle(6-morpholino)][Nle(6-morpholino)][4Pal][NMePhe(4-COOH)]C[PEG4]-NH2; thioether N-15), the results for the dissociation constant (Kd) in assay [1] and in assay [2] were 12.6 nM and 72 nM, respectively.

For `CC[C@H](C)[C@@H]1NC(=O)[C@H](Cc2ccc(OC)cc2)NC(=O)[C@H](Cc2ccc(N)nc2)NC(=O)[C@H](CC(N)=O)NC(=O)[C@H](Cc2c[nH]c3ccccc23)NC(=O)[C@H](C(C)C)NC(=O)[C@H](Cc2cccc(Cl)c2)N(C)C(=O)[C@H](C(C)C)NC(=O)[C@H](C)NC(=O)CSC[C@@H](C(=O)NCCOCCOCCOCCOCCC(N)=O)NC(=O)[C@H](Cc2ccc(O)cc2)N(C)C(=O)[C@H](Cc2ccncc2)NC(=O)[C@H](CCCNC(=N)N)NC(=O)[C@H](CCCCN)NC(=O)[C@H]([C@@H](C)CC)NC1=O` [compound 57] ({CH2CO}-AV[NMePhe(3-Cl)]VWN[3Pal(6-NH2)]Y(Me)IIKR[4Pal][NMeY]C[PEG4]-NH2; thioether N-15), the Kd in assay [1] stood at 0.971 nM; in assay [2], 5.4 nM.

As to `CC[C@H](C)[C@@H]1NC(=O)[C@H](Cc2ccc(OC)cc2)NC(=O)[C@H](Cc2ccc(N)nc2)NC(=O)[C@H](CC(N)=O)NC(=O)[C@H](Cc2c[nH]c3ccccc23)N(C)C(=O)[C@H](C(C)C)NC(=O)[C@H](Cc2cccc(Cl)c2)N(C)C(=O)[C@H](C(C)C)NC(=O)[C@H](C)NC(=O)CSC[C@@H](C(=O)NCCOCCOCCOCCOCCC(N)=O)NC(=O)[C@H](Cc2ccc(O)cc2)N(C)C(=O)[C@H](Cc2ccncc2)NC(=O)[C@H](CCCNC(=N)N)NC(=O)[C@H](CCCCN)NC(=O)[C@H]([C@@H](C)CC)NC1=O` [compound 58] ({CH2CO}-AV[NMePhe(3-Cl)]V[NMeW]N[3Pal(6-NH2)]Y(Me)IIKR[4Pal][NMeY]C[PEG4]-NH2; thioether N-15), the Kd in assay [1] stood at 1.34 nM; in assay [2], 5.39 nM.

On to `CC[C@H](C)[C@@H]1NC(=O)[C@H](Cc2ccc(OC)cc2)NC(=O)[C@H](Cc2ccc(N)nc2)NC(=O)[C@H](CC(N)=O)NC(=O)[C@H](Cc2c[nH]c3ccccc23)NC(=O)[C@H](C(C)C)NC(=O)[C@H](Cc2cccc(Cl)c2)N(C)C(=O)[C@H](C(C)C)NC(=O)[C@H](C)NC(=O)CSC[C@@H](C(=O)NCCOCCOCCOCCOCCC(N)=O)NC(=O)[C@H](Cc2ccc(C(=O)O)cc2)N(C)C(=O)[C@H](Cc2ccncc2)NC(=O)[C@H](CCCNC(=N)N)NC(=O)[C@H](CCCCN)NC(=O)[C@H]([C@@H](C)CC)NC1=O` [compound 59] ({CH2CO}-AV[NMePhe(3-Cl)]VWN[3Pal(6-NH2)]Y(Me)IIKR[4Pal][NMePhe(4-COOH)]C[PEG4]-NH2; thioether N-15), for which the Kd was found to be 1.46 nM in assay [1] and 9.57 nM in assay [2].

As to `CC[C@H](C)[C@@H]1NC(=O)[C@H](Cc2ccc(OC)cc2)NC(=O)[C@H](Cc2ccc(N)nc2)NC(=O)[C@H](CC(N)=O)NC(=O)[C@H](Cc2c[nH]c3ccccc23)N(C)C(=O)[C@H](C(C)C)NC(=O)[C@H](Cc2cccc(Cl)c2)N(C)C(=O)[C@H](C(C)C)NC(=O)[C@H](C)NC(=O)CSC[C@@H](C(=O)NCCOCCOCCOCCOCCC(N)=O)NC(=O)[C@H](Cc2ccc(C(=O)O)cc2)N(C)C(=O)[C@H](Cc2ccncc2)NC(=O)[C@H](CCCNC(=N)N)NC(=O)[C@H](CCCCN)NC(=O)[C@H]([C@@H](C)CC)NC1=O` [compound 60] ({CH2CO}-AV[NMePhe(3-Cl)]V[NMeW]N[3Pal(6-NH2)]Y(Me)IIKR[4Pal][NMePhe(4-COOH)]C[PEG4]-NH2; thioether N-15), the Kd in assay [1] was 0.755 nM; in assay [2] it was 4.71 nM.
